# Measured values from patent US8883841B2, “Oncogenic ras-specific cytotoxic compound and methods of use thereof” (The Board of Regents of the University of Texas System, priority 2005, dated 2014).
# Columns and labels:
# Sw620 = test: Cell viability, Sw620 colon cancer cells; format: cell-based, human; details: Sw620, Colon
# Ovcar443 = test: Cell viability, Ovcar443 ovary cancer cells; format: cell-based
# RXF 393 = test: NCI in-vitro testing, RXF 393 (Renal Cancer)
# OVCAR-4 = test: NCI in-vitro testing, OVCAR-4 (Ovarian Cancer)
# HOP-92 = test: NCI in-vitro testing, HOP-92 (Non-Small Cell Lung Cancer)
# A498 = test: NCI in-vitro testing, A498 (Renal Cancer)
# RPMI-8226 = test: NCI in-vitro testing, RPMI-8226 (Leukemia)
# HT29 = test: NCI in-vitro testing, HT29 (Colon Cancer)
# CCRF-CEM = test: NCI in-vitro testing, CCRF-CEM (Leukemia)
# H460 cells = test: cells; details: Homo sapiens, NCI-H460, read-out: IC50 (−LogM), H460, Lung (converted)
# OVCAR-3 = test: NCI in-vitro testing, OVCAR-3 (Ovarian Cancer)
# TK-10 = test: NCI in-vitro testing, TK-10 (Renal Cancer)
# 786-0 = test: NCI in-vitro testing, 786-0 (Renal Cancer)
# SNB-19 = test: NCI in-vitro testing, SNB-19 (CNS Cancer)
# SN12C = test: NCI in-vitro testing, SN12C (Renal Cancer)
# T-47D = test: NCI in-vitro testing, T-47D (Breast Cancer)
# U251 = test: NCI in-vitro testing, U251 (CNS Cancer)
smiles,measurement,setting,value
"O=Cc1cn(Cc2ccc(Cl)cc2)c2ccccc12 [Oncrasin K001, 1H-Indole-3-carboxaldehyde, 1-[(4-chlorophenyl)methyl]-(9CI)]",IC50 (−LogM),Sw620,5.4 −LogM
same,IC50 (−LogM),Ovcar443,4.5 −LogM
"O=Cc1cn(Cc2cccc(Cl)c2)c2ccccc12 [Oncrasin K027, 1-(3-chlorobenzyl)-1H-indole-3-carbaldehyde]",GI50,"RXF 393; Homo sapiens, RXF 393",< 0.01 µM
same,CC50,"RXF 393; Homo sapiens, RXF 393, read-out: LC50",23.2 µM
same,TGI,RXF 393; RXF 393,2.44E−7 Molar
same,Percent Growth,"RXF 393; RXF 393, Log10 Concentration −4.0 Molar",−85%
same,Percent Growth,"RXF 393; RXF 393, Log10 Concentration −5.0 Molar",−30%
same,Percent Growth,"RXF 393; RXF 393, Log10 Concentration −6.0 Molar",−12%
same,Percent Growth,"RXF 393; RXF 393, Log10 Concentration −7.0 Molar",7%
same,Percent Growth,"RXF 393; RXF 393, Log10 Concentration −8.0 Molar",31%
same,GI50,"OVCAR-4; Homo sapiens, OVCAR-4",0.34 µM
same,CC50,"OVCAR-4; Homo sapiens, OVCAR-4, read-out: LC50",> 100 µM
same,TGI,OVCAR-4; OVCAR-4,1.80E−5 Molar
same,Percent Growth,"OVCAR-4; OVCAR-4, Log10 Concentration −4.0 Molar",−29%
same,Percent Growth,"OVCAR-4; OVCAR-4, Log10 Concentration −5.0 Molar",10%
same,Percent Growth,"OVCAR-4; OVCAR-4, Log10 Concentration −6.0 Molar",31%
same,Percent Growth,"OVCAR-4; OVCAR-4, Log10 Concentration −7.0 Molar",71%
same,Percent Growth,"OVCAR-4; OVCAR-4, Log10 Concentration −8.0 Molar",94%
same,Percent Growth,"HOP-92; HOP-92, Log10 Concentration −4.0 Molar",−60%
same,Percent Growth,"HOP-92; HOP-92, Log10 Concentration −5.0 Molar",34%
same,Percent Growth,"HOP-92; HOP-92, Log10 Concentration −6.0 Molar",89%
same,Percent Growth,"HOP-92; HOP-92, Log10 Concentration −7.0 Molar",81%
same,Percent Growth,"HOP-92; HOP-92, Log10 Concentration −8.0 Molar",97%
same,GI50,"HOP-92; Homo sapiens, HOP-92",5.17 µM
same,CC50,"HOP-92; Homo sapiens, HOP-92, read-out: LC50",77.8 µM
same,TGI,A498; A498,3.33E−8 Molar
same,Percent Growth,"A498; A498, Log10 Concentration −4.0 Molar",−94%
same,Percent Growth,"A498; A498, Log10 Concentration −5.0 Molar",−95%
same,Percent Growth,"A498; A498, Log10 Concentration −6.0 Molar",−87%
same,Percent Growth,"A498; A498, Log10 Concentration −7.0 Molar",−66%
same,Percent Growth,"A498; A498, Log10 Concentration −8.0 Molar",61%
same,GI50,"A498; Homo sapiens, A498",0.0124 µM
same,CC50,"A498; Homo sapiens, A498, read-out: LC50",0.089 µM
same,GI50,"RPMI-8226; Homo sapiens, RPMI-8226",0.372 µM
same,CC50,"RPMI-8226; Homo sapiens, RPMI-8226, read-out: LC50",> 100 µM
same,TGI,RPMI-8226; RPMI-8226,3.19E−6 Molar
same,Percent Growth,"RPMI-8226; RPMI-8226, Log10 Concentration −4.0 Molar",−35%
same,Percent Growth,"RPMI-8226; RPMI-8226, Log10 Concentration −5.0 Molar",−23%
same,Percent Growth,"RPMI-8226; RPMI-8226, Log10 Concentration −6.0 Molar",24%
same,Percent Growth,"RPMI-8226; RPMI-8226, Log10 Concentration −7.0 Molar",85%
same,Percent Growth,"RPMI-8226; RPMI-8226, Log10 Concentration −8.0 Molar",119%
same,TGI,HT29; HT29,2.01E−6 Molar
same,Percent Growth,"HT29; HT29, Log10 Concentration −4.0 Molar",−66%
same,Percent Growth,"HT29; HT29, Log10 Concentration −5.0 Molar",29%
same,Percent Growth,"HT29; HT29, Log10 Concentration −6.0 Molar",68%
same,Percent Growth,"HT29; HT29, Log10 Concentration −7.0 Molar",79%
same,Percent Growth,"HT29; HT29, Log10 Concentration −8.0 Molar",103%
same,GI50,"HT29; Homo sapiens, HT-29",0.00183 µM
same,CC50,"HT29; Homo sapiens, HT-29, read-out: LC50",6.76 µM
same,GI50,CCRF-CEM; Homo sapiens,1.74 µM
same,CC50,"CCRF-CEM; Homo sapiens, read-out: LC50",14.8 µM
same,Percent Growth,CCRF-CEM; Log10 Concentration −4.0 Molar,−67%
same,Percent Growth,CCRF-CEM; Log10 Concentration −5.0 Molar,−47%
same,Percent Growth,CCRF-CEM; Log10 Concentration −6.0 Molar,87%
same,Percent Growth,CCRF-CEM; Log10 Concentration −7.0 Molar,97%
same,Percent Growth,CCRF-CEM; Log10 Concentration −8.0 Molar,100%
same,IC50,H460 cells,0.00398 µM
same,GI50,"OVCAR-3; Homo sapiens, OVCAR-3",0.569 µM
same,CC50,"OVCAR-3; Homo sapiens, OVCAR-3, read-out: LC50",69.1 µM
same,TGI,OVCAR-3; OVCAR-3,1.03E−5 Molar
same,Percent Growth,"OVCAR-3; OVCAR-3, Log10 Concentration −4.0 Molar",−60%
same,Percent Growth,"OVCAR-3; OVCAR-3, Log10 Concentration −5.0 Molar",1%
same,Percent Growth,"OVCAR-3; OVCAR-3, Log10 Concentration −6.0 Molar",41%
same,Percent Growth,"OVCAR-3; OVCAR-3, Log10 Concentration −7.0 Molar",77%
same,Percent Growth,"OVCAR-3; OVCAR-3, Log10 Concentration −8.0 Molar",95%
same,GI50,"TK-10; Homo sapiens, TK-10",0.0153 µM
same,CC50,"TK-10; Homo sapiens, TK-10, read-out: LC50",> 100 µM
same,TGI,TK-10; TK-10,8.84E−8 Molar
same,Percent Growth,"TK-10; TK-10, Log10 Concentration −4.0 Molar",−16%
same,Percent Growth,"TK-10; TK-10, Log10 Concentration −5.0 Molar",−8%
same,Percent Growth,"TK-10; TK-10, Log10 Concentration −6.0 Molar",−10%
same,Percent Growth,"TK-10; TK-10, Log10 Concentration −7.0 Molar",−3%
same,Percent Growth,"TK-10; TK-10, Log10 Concentration −8.0 Molar",62%
same,TGI,786-0; 785-0,2.19E−5 Molar
same,Percent Growth,"786-0; 785-0, Log10 Concentration −4.0 Molar",−52%
same,Percent Growth,"786-0; 785-0, Log10 Concentration −5.0 Molar",27%
same,Percent Growth,"786-0; 785-0, Log10 Concentration −6.0 Molar",70%
same,Percent Growth,"786-0; 785-0, Log10 Concentration −7.0 Molar",88%
same,Percent Growth,"786-0; 785-0, Log10 Concentration −8.0 Molar",69%
same,GI50,"786-0; Homo sapiens, 786-0",3.4 µM
same,CC50,"786-0; Homo sapiens, 786-0, read-out: LC50",84.7 µM
same,GI50,"SNB-19; Homo sapiens, SNB-19",17.6 µM
same,CC50,"SNB-19; Homo sapiens, SNB-19, read-out: LC50",> 100 µM
same,TGI,SNB-19; SNB-19,5.89E−5 Molar
same,Percent Growth,"SNB-19; SNB-19, Log10 Concentration −4.0 Molar",−24%
same,Percent Growth,"SNB-19; SNB-19, Log10 Concentration −5.0 Molar",74%
same,Percent Growth,"SNB-19; SNB-19, Log10 Concentration −6.0 Molar",97%
same,Percent Growth,"SNB-19; SNB-19, Log10 Concentration −7.0 Molar",97%
same,Percent Growth,"SNB-19; SNB-19, Log10 Concentration −8.0 Molar",103%
same,TGI,SN12C,1.94E−5 Molar
same,GI50,SN12C; Homo sapiens,3.56 µM
same,CC50,"SN12C; Homo sapiens, read-out: LC50",67.2 µM
same,Percent Growth,SN12C; Log10 Concentration −4.0 Molar,−66%
same,Percent Growth,SN12C; Log10 Concentration −5.0 Molar,27%
same,Percent Growth,SN12C; Log10 Concentration −6.0 Molar,79%
same,Percent Growth,SN12C; Log10 Concentration −7.0 Molar,93%
same,Percent Growth,SN12C; Log10 Concentration −8.0 Molar,97%
same,GI50,"T-47D; Homo sapiens, T47D",0.0267 µM
same,CC50,"T-47D; Homo sapiens, T47D, read-out: LC50",> 100 µM
same,TGI,T-47D; T-47D,4.23E−7 Molar
same,Percent Growth,"T-47D; T-47D, Log10 Concentration −4.0 Molar",−14%
same,Percent Growth,"T-47D; T-47D, Log10 Concentration −5.0 Molar",−16%
same,Percent Growth,"T-47D; T-47D, Log10 Concentration −6.0 Molar",−12%
same,Percent Growth,"T-47D; T-47D, Log10 Concentration −7.0 Molar",20%
same,Percent Growth,"T-47D; T-47D, Log10 Concentration −8.0 Molar",73%
same,GI50,"U251; Homo sapiens, U-251",2.46 µM
same,CC50,"U251; Homo sapiens, U-251, read-out: LC50",> 100 µM
same,TGI,U251; U251,2.53E−5 Molar
same,Percent Growth,"U251; U251, Log10 Concentration −4.0 Molar",−35%
same,Percent Growth,"U251; U251, Log10 Concentration −5.0 Molar",25%
same,Percent Growth,"U251; U251, Log10 Concentration −6.0 Molar",56%
same,Percent Growth,"U251; U251, Log10 Concentration −7.0 Molar",84%
same,Percent Growth,"U251; U251, Log10 Concentration −8.0 Molar",93%
